According to patent US10603325B2, “Methods of treating age-related symptoms in mammals and compositions therefor” (University of Maryland, priority 2014, dated 2020):
Entries after “also recorded” stand apart in the source; their conditions may differ.

Columns and labels:
skin fibroblast cells = assay: Cell viability after H2O2 insults; assay type: cell-based, human; details: H2O2 1 mM, 60 minutes; low and high concentrations of MB
Method: MB or other antioxidant treated skin fibroblast cells were incubated with PBS containing H2O2 at 1 mM for 60 minutes. The cells were then washed three times using PBS and subjected to a cellular stress assay (as described above in 2). See the results obtained in FIG. 11.

progerin in HGPS cells = assay: Confocal microscopy of progerin distribution; assay type: cell-based, human; details: MB treated HGPS cells, anti-progerin antibody staining
normal fibroblasts = assay: RNA-seq gene expression differential analysis; assay type: cell-based, human; details: Normal+Vehicle vs. Normal+MB, 100 nM
Method: (§1) FIG. 6(A)-(B): Methylene Blue Rescues Gene Expression in HGPS Cells • (A) Pie chart showing the percentages and (B) the counted gene numbers of unaffected- and affected-genes in paired comparison among four groups (Normal+Vehicle vs. Progeria+Vehicle; Normal+Vehicle vs. Normal+MB; Progeria+Vehicle vs. Progeria+MB; and Normal+Vehicle+Progeria+MB).
(§2) Chromatin re-organization after MB treatment may induce gene expression changes. To examine the effects of MB on gene expression, RNA-seq was conducted in Mock and MB treated normal and HGPS cells, and gene expression differential analysis was performed using Tophat and Cufflinks suite of tools (see Methods). The RNA-seq data was obtained from two biological replicates; each included four groups of samples (Normal+Vehicle; Normal+MB; HGPS+Vehicle; and HGPS+MB). Pairwise comparisons were conducted (FIG. 6A-B). Consistent with previous studies, there are more than 20% differentially expressed genes (up/down: 7.79%/14.18%) in HGPS cells vs. normal fibroblasts (FIG. 6A-1).
(§3) For RNA sequencing experiments, the cell pellets of Normal or HGPS fibroblasts were collected from two individually cultured cells treated with vehicle or 100 nM MB from P15 or P16 to P20. Total RNA was extracted with Trizol (Life Sciences), followed by RNA precipitation with isopropanol, then purified using the RNeasy Mini Kit (Qiagen). The RNA quality was checked using Agilent 2100 Bioanalyzer showing good RIN numbers (8.90=9.70) in all eight samples. The RNA-seq sample preparation and sequencing were conducted according to the Illumina Truseq RNA sample preparation V2 guide by the IBBR Sequencing Core Facility at the University of Maryland. RNA-seq mapping and gene expression differential analysis was performed using Tophat and Cufflinks suite of tools as described previously by Trapnell et al.

HGPS fibroblasts = assay: RNA-seq gene expression differential analysis; assay type: cell-based, human
Method: as §1, §2, §3

HGPS cells [1] = assay: Perinuclear heterochromatin (TEM) and HP1α immunostaining/western blotting; assay type: cell-based, human
Text: (§4) (Upper panel). Normalized relative HP1α protein levels in each sample are shown in the lower graph.
Based on the results from FIG. 4 and FIGS. 5A-D, it was hypothesized that While MB is a universal mitochondrial-targeting antioxidant for both normal and HGPS cells, it has a specific role in HGPS cells by dislocating progerin away from the nuclear membrane. Previous studies reported that the anchorage of progerin to the nuclear membrane caused a loss of perinuclear heterochromatin in HGPS Cells. […] The rescue of heterochromatin loss by MB was further verified by immunostaining and western blotting using an antibody against heterochromatin protein 1alpha (HP1α).
(§5) Passage-matched normal or HGPS skin fibroblasts were grown on 35-mm glass bottom dish until 80% confluence. Cells were prepared for transmission electron microscopic analysis following the protocol of McCord et al. Briefly, cells were fixed with 2.5% glutaraldehyde in 0.1 M sodium cacodylate (pH 7.4) for one hour at room temperature. Specimens were washed three times with 0.1 M sodium cacodylate and post-fixed for one hour with 1% osmium tetroxide in 0.1 M sodium cacodylate at room temperature. After washing three times with distilled water, specimens were incubated with 2% aqueous uranyl acetate at room temperature. The specimens were dehydrated in ethanol gradients: 35% for 10min, 50% for 10min, 70% for 10min, for 95% for 10 min, and 100% for 3×5 min. The infiltration was performed in EtOH: EPON resin mixture at various ratio from 1:1, 1:2, 1:3 or complete EPON for one hour each ratio. The specimens were finally embedded in complete EPON at 60° C. over night. […] Mitochondrial morphological quantification was conducted blindly by a trained TEM expert. Two observers scored over 360 mitochondria from 10 randomly selected cells in each group blindly. […] Over 300 mitochondria in either normal or HGPS lines were blindly scored according to these criteria.

[2] = tested on: mitochondria in normal and HGPS fibroblasts; assay: TEM scoring of mitochondrial abnormalities; assay type: cell-based, human; details: MB 100 nM, 8 weeks
Method: as §4
(§6) To evaluate the effects of MB on mitochondria, ATP levels, mitochondrial superoxide (MitoSOX) and overall intracellular ROS (DCFDA) in Mock or MB-treated cells.
as §5, with “min.” for “min. The infiltration was performed in EtOH: EPON resin mixture at various ratio from 1:1, 1:2, 1:3 or complete EPON for one hour each ratio. The specimens were finally embedded in complete EPON at 60° C. over night.”

[3] = tested on: PGC-1α in normal and HGPS fibroblasts; assay: PGC-1α expression (western blot, quantitative RT-PCR); assay type: cell-based, human; details: MB 100 nM, 8 weeks
[4] = tested on: EpiDerm Full Thickness (EFT-412); assay: ECM gene expression analysis (quantitative PCR array); assay type: cell-based; details: MB for two weeks
Method: The expression of ECM genes were analyzed by quantitative PCR array on EpiDerm Full Thickness (EFT-412).
EFT-412 tissues were treated with MB for 2 weeks. […] Using RCP arrays for ECM remodeling genes. See results obtained in FIG. 14.

[5] = tested on: Epiderm Full Thickness (EFT-412) skin tissue; assay: Histological analysis (H&E) of skin tissue; assay type: cell-based; details: MB at various concentration for two weeks
Text: H&E staining on the MB treated skin tissues. […] See the results obtained in FIG. 15.

[6] = tested on: normal and HGPS fibroblasts; assay: ATP assay; assay type: cell-based, human; details: MB 100 nM, 5 weeks, vs mock
Method: as §4, §6
Intracellular ATP content was measured by using luminescence ATP detection System (ATPlite, PerkinElmer). Briefly, fibroblast cells were harvested with 0.05% trypsin-EDTA and counted. The same number of 2,500 cells from each fibroblast sample was seeded onto a 96-well black plate (triplicate). After the cells had been lysed with the lysis buffer for five minutes, the substrate solution was added and mixed for another five minutes to conduct the reaction for light generation. After dark adaption for 10 minutes, the luminescence intensity of each well was acquired at luminescence mode with SoftMax Pro software connecting to SpectraMax M5 Microplate Reader.

Skin tissues = assay: Skin hydration test (DPM9003); assay type: cell-based; details: MB for 2 weeks
Method: Skin tissues were treated with MB for 2 weeks, then skin hydration was detected by using DPM9003 with 4 mm probe. […] See the results obtained in FIG. 13. The noted small variations appear to have been due to pressure and leakage of medium.

[7] = tested on: normal and HGPS fibroblasts; assay: ROS assays by flow cytometry (MitoSOX, DCFDA); assay type: cell-based, human
Method: as §4, §6
To measure mitochondrial superoxide, MB or other antioxidant treated skin fibroblast cells cultured on 60-mm dishes were incubated with fresh complete medium containing 5 μM MitoSOXRed (Life Technologies) at 37° C. After 30 minutes, stained cells were harvested by trypsin digestion and rinsed twice with PBS. Single cell suspensions in 400 μl PBS were prepared for FACS analysis (FACS Canto II; BD). MitoSOX Red was excited by laser at 488 nm, and the data was collected at 582±21 nm. See results in FIG. 10.
To measure mitochondrial superoxide, cells grown on 60-mm dishes were incubated with fresh complete medium containing 5 μM MitoSOX Red (Life Technologies, M36008) at 37° C. After 30 minutes, stained cells were harvested by trypsin digestion and rinsed twice with PBS. Single cell suspensions in 400 μl PBS were prepared for FACS analysis (FACS Canto II; BD). […] Mitochondrial membrane potential (MMP, Life Technologies, M34152) and Annexin V-positive apoptotic cells (BD Pharmingen, 556547) were measured according to manufacturer's protocol. Flow cytometry was performed by FACS Cantoll (BD) and the data were analyzed by FlowJo Software.

HGPS cells [8] = assay: Senescence: SA-β-gal assay and p16 expression analysis; assay type: cell-based, human; details: MB-treated vs mock-treated HGPS cells
Method: SA-β-gal activity assay was performed according to the manufacturer's protocol (#9860; Cell Signaling). Briefly, fibroblasts cells grown on six-well plate were fixed in 1× fixative solution containing 2% formaldehyde and […] for 10 minutes, and then stained overnight at 37° C. with the (3-galactosidase staining solution at pH 6.0 for 15 hours. Images were acquired by Zeiss AX10 microscope with a SPOT PURSUIT camera.

[9] = HGPS+Vehicle vs. HGPS+MB, 100 nM

Compound: CN(C)c1ccc2nc3ccc(N(C)C)cc3[s+]c2c1.[Cl-] [MB, 3,7-bis(dimethylamino)-phenothiazin-5-ium chloride]
- cell viability upon hydrogen peroxide treatment (skin fibroblast cells): significantly improved cell viability
- progerin distribution in nucleus (progerin in HGPS cells): clear redistribution of progerin from the nuclear rim into the nucleoplasm
- genes with significant expression changes, down (normal fibroblasts): 0.14%
- genes with significant expression changes, up (normal fibroblasts): 0.19%
- genes affected by MB, down (HGPS fibroblasts; [9]): 0.45%
- genes affected by MB, up (HGPS fibroblasts; [9]): 1.52%
- number of differentially expressed genes (HGPS fibroblasts; Normal+Vehicle vs. HGPS+MB, after one month of MB treatment): 1674
- HP1α protein level (HGPS cells [1]; MB 100 nM, 6 weeks): upregulation of HP1α protein level
- nuclear HP1α staining (HGPS cells [1]; MB 100 nM, 6 weeks): increase in nuclear HP1α staining
- perinuclear heterochromatin organization (TEM) (HGPS cells [1]; MB 8 weeks): readily apparent restoration of perinuclear heterochromatin organization
- number of severely defective mitochondria [2]: significant reduction in the number of severely defective mitochondria
- expression of PGC-1α [3]: stimulated the expression of PGC-1α
- normal gene expression (3D skin tests) [4]: little or no effect on normal gene expression
- dermis / skin thickness [5]: increase dermis thickness; also recorded: Increases Skin Thickness
- ATP production [6]: Significant improvements in ATP production
- skin hydration (Skin tissues): did not increase skin hydration
- ROS levels (MitoSOX, DCFDA) ([7]; MB 100 nM, 8 weeks, vs mock): reductions in ROS levels
- MitoSOX level (mitochondria specific superoxide) ([7]; four weeks treatment, normal and HGPS fibroblasts, comparison with NAC, MitoQ, MitoTEMPO): significant decrease of MitoSOX level
- senescence (SA-β-gal, p16 expression) (HGPS cells [8]): younger than the mock-treated cells
